The values that follow come from ChEMBL document CHEMBL1156705, “Part 1: Effect of vitamin C on the biological activity of two euryfurylbenzoquinones on TLT, a murine hepatoma cell line” (2008).

Common to all, as to format: functional
The nature of test [1]: Induction of apoptosis in mouse TLT cells assessed as effect on caspase 3 activity at 1 ug/ml after 24 hrs by fluorometric assay in presence of 2 mM vitamin C.
Test [2] can be described thus: Induction of apoptosis in mouse TLT cells assessed as effect on caspase 3 activity at 1 ug/ml after 24 hrs by fluorometric assay.
A short description of test [3]: Induction of apoptosis in mouse TLT cells assessed as effect on caspase 3 activity at 100 ug/ml after 24 hrs by fluorometric assay.
The nature of test [4]: Cytotoxicity against mouse TLT cells assessed as decrease in intracellular reduced glutathione level at 1 to 50 ug/ml after 24 hrs by ortho-phthalaldehyde method relative to control. The arrangement: scale not given: the % may be the effect or the level left.
Test [5] in a line: Induction of apoptosis in mouse TLT cells assessed as effect on caspase 3 activity at 100 ug/ml after 24 hrs by fluorometric assay in presence of 2 mM vitamin C.
Test [6] in a line: Cytotoxicity against mouse TLT cells assessed as cytoplasmic LDH release at 50 ug/ml after 24 hrs in presence of 2 mM vitamin C. On the technique in general: LDH leaks from cells whose membrane has failed.
The nature of test [7]: Induction of apoptosis in mouse TLT cells assessed as effect on caspase 3 activity at 50 ug/ml after 24 hrs by fluorometric assay in presence of 2 mM vitamin C.
Test [8] in a line: Cytotoxicity against mouse TLT cells assessed as decrease in intracellular ATP level at 1 to 50 ug/ml after 24 hrs by bioluminescence assay relative to control. The arrangement: scale not given: the % may be the effect or the level left.
Test [9] in a line: Cytotoxicity against mouse TLT cells assessed as decrease in intracellular reduced glutathione level at 1 to 50 ug/ml after 24 hrs by ortho-phthalaldehyde method relative to control in presence of 2 mM vitamin C. On the set-up: scale not given: the % may be the effect or the level left.
Test [10] is described as follows: Induction of apoptosis in mouse TLT cells assessed as effect on caspase 3 activity at 50 ug/ml after 24 hrs by fluorometric assay.
Test [11] is described as follows: Induction of apoptosis in mouse TLT cells assessed as increase in caspase 3 activity at 50 ug/ml after 24 hrs by fluorometric assay relative to basal level.
A short description of test [12]: Cytotoxicity against mouse TLT cells assessed as cytoplasmic LDH release at 50 ug/ml after 24 hrs.
Test [13] in a line: Cytotoxicity against mouse TLT cells assessed as decrease in intracellular ATP level at 1 to 50 ug/ml after 24 hrs by bioluminescence assay relative to control in presence of 2 mM vitamin C. The arrangement: scale not given: the % may be the effect or the level left.
The nature of test [14]: Induction of apoptosis in mouse TLT cells assessed as increase in caspase 3 activity at 50 ug/ml after 24 hrs by fluorometric assay relative to basal level in presence of 2 mM vitamin C.
The nature of test [15]: Cytotoxicity against mouse TLT cells assessed as cytoplasmic LDH release at 1 ug/ml after 24 hrs.
Test [16] can be described thus: Cytotoxicity against mouse TLT cells assessed as decrease in intracellular reduced glutathione level at 50 ug/ml after 24 hrs by ortho-phthalaldehyde method relative to control in presence of 2 mM vitamin C. The arrangement: scale not given: the % may be the effect or the level left.
A short description of test [17]: Cytotoxicity against mouse TLT cells assessed as decrease in intracellular ATP level at 50 ug/ml after 24 hrs by bioluminescence assay relative to control in presence of 2 mM vitamin C. The arrangement: scale not given: the % may be the effect or the level left.

For `CC1(C)CCCC2(C)c3coc(C4=CC(=O)C=CC4=O)c3CCC12` (centres undefined), the Activity worked out at 15.1 mU in test [1]; 21.3 mU in [2]; 51.1 mU in test [3]; 60% in test [4]; 57.8 mU in test [5]; 28% in test [6]. Besides, the Activity is recorded as 25.6 mU in test [7]; 40% in test [8]; 60% in [9]; 37.2 mU in test [10]; 2.5 in test [11]; 28% in test [12]. Further, the results for the Activity in [13] and in test [14] were 40% and 3.5, respectively.

Turning to `CC1(C)CCCC2(C)c3coc(C4=C([N+](=O)[O-])C(=O)C=CC4=O)c3CCC12` (centres undefined), the Activity in test [1] worked out at 12.8 mU; in test [2], 31.9 mU; in [3], 22.5 mU; in test [5], 1 mU; in test [6] it was 60%; in [7], 10.7 mU. The Activity in test [15] is listed as 28%; in test [16], 25%; in test [10], 27.4 mU; in test [17] it was 50%.
